Consider eight compounds from patent US6448405B1, “Steroid receptor modulator compounds and methods” (Ligand Pharmaceuticals Incorporated, priority 1994, dated 2002).

Like-named read-outs stand apart in the source and are kept apart here.

Test [1] deals with uterine wet weight in ovariectomized Sprague-Dawely rats. As to the kind of experiment: Uterine wet weight assay (PR agonists). The format is in vivo, rat. The source says:
The effectiveness of selected compounds of the present invention as PR agonists was investigated in the well recognized uterine wet weight assay, as described in G. J. Marcus, “Mitosis in the rat uterus during the estrous cycle, early pregnancy and early pseudopregnancy”, 10 Biol. Reprod., 447 (1974), S. […] J. Obstet. […] I. Dorfman, “Estrogens” (Ch. 2) and “Antiestrogens” (Ch. 3). in Methods in Hormone Research, ed. R. I. Dorfman, Academic Press, New York, New York, pp101-130 (1969), the disclosures of which are herein incorporated by reference. Four to five week old, ovariectomized, Sprague-Dawely rats (Harlan-Sprague-Dawely, Indianapolis, Ind.) were obtained 1 week after surgery and allowed to acclimate for an additional week after shipment. […] Louis, Mo.) a synthetic estrogen agonist, were fully dissolved in purified sesame oil (Croda, Parsippany, N.J.). […] Additional control groups of rats were administered estrone or vehicle (i.e. sesame oil) alone. Animals were sacrificed on the fourth day of the experiment.

A further test addresses T1, human PR-B (Homo sapiens, UniProt P06401).
T1 construct: expressed in transfected cells; host or cells: CV-1 cells (African green monkey kidney fibroblasts), transient transfection
T1 sequence (P06401 1-933): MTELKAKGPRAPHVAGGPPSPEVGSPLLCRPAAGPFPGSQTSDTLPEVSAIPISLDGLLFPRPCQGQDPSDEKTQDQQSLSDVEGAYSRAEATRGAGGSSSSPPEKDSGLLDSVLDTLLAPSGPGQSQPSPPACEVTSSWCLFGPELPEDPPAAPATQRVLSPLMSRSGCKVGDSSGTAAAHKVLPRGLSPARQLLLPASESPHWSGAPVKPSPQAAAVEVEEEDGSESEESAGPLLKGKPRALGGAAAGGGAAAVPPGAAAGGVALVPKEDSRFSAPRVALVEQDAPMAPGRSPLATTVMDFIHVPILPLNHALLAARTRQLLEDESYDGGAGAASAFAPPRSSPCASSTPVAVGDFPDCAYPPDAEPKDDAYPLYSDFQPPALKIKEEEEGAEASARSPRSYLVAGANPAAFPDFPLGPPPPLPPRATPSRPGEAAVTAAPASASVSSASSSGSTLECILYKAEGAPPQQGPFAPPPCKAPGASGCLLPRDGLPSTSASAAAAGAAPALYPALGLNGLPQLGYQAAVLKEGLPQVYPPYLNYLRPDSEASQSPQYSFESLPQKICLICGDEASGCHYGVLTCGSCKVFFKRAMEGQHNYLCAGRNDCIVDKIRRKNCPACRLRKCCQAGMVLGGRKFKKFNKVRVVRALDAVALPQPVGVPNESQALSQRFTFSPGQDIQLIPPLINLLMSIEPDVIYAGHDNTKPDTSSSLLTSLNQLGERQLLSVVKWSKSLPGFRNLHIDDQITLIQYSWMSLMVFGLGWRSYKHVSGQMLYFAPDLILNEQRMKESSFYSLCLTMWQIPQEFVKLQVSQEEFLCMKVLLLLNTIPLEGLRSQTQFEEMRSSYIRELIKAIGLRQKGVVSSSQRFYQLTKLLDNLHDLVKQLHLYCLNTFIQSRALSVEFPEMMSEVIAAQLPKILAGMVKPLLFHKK
In words: Co-transfection assay, PR agonist and antagonist activity, CV-1 cells.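 On all read-outs here: luciferase reporter driven by a hormone response element, co-transfected with human PR-B into CV-1 monkey kidney cells, agonists raise and antagonists lower the reporter signal.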 The format is cell-based. The following applies: for EC50: agonist mode, read-out: PR Agonist CV-1 Cells Potency.

The target in test [2] is T2, human progesterone receptor A form (PR-A) (Homo sapiens, UniProt P06401).
T2 sequence (P06401 1-769 isoform P06401-2): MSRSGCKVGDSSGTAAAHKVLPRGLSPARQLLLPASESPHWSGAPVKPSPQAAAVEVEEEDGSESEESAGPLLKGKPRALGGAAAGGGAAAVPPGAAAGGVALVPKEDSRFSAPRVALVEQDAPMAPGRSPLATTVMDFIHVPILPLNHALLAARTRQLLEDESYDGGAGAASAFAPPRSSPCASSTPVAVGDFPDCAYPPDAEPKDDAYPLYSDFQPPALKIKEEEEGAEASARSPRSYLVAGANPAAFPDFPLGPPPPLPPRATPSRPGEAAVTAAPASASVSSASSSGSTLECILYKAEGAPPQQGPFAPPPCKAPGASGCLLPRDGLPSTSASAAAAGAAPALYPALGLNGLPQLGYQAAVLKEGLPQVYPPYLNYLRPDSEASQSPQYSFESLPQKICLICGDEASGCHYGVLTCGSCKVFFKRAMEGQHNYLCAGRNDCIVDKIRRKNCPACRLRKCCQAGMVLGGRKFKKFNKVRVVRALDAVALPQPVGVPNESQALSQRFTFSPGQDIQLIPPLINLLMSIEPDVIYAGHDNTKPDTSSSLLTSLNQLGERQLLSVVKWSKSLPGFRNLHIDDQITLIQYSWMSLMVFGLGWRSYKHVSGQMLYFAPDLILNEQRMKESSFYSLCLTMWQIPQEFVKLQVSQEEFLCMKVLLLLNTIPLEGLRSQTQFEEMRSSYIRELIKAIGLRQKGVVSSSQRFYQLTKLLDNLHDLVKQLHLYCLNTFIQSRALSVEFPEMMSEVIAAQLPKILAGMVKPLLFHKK
As to the kind of experiment: PR binding assay, baculovirus extract, [3H] progesterone.

Test [3] deals with T3, human glucocorticoid receptor (GR) (Homo sapiens, UniProt P04150).
T3 construct: expressed in transfected cells; host or cells: CV-1 cells, transient transfection
T3 sequence (P04150 1-777): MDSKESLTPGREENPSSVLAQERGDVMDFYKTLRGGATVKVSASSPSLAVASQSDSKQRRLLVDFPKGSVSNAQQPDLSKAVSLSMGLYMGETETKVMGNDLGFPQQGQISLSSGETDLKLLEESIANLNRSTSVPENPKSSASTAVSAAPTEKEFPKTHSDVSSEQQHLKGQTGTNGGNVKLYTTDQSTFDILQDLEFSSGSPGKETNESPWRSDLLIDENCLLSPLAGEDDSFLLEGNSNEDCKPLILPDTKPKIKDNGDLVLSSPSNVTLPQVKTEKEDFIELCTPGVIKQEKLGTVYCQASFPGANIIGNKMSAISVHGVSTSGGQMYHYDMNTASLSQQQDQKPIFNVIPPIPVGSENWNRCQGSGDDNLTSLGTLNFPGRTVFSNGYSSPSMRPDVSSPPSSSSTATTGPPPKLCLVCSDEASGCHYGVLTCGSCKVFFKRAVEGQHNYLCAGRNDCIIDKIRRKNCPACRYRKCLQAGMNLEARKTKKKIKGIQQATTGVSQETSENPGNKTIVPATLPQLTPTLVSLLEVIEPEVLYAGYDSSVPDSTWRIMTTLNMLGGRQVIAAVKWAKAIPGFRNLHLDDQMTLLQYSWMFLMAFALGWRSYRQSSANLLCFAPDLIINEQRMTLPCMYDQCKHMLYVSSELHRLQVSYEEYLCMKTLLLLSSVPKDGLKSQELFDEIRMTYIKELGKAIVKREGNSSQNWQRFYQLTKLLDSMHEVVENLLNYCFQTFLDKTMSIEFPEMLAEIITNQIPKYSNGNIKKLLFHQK
In words: Co-transfection assay, GR antagonist activity, CV-1 cells (pRShGR). The format is cell-based. The following applies: for GR Antagonist CV-1 Cells Efficacy (%): Table 4, antagonist mode, % maximal inhibition.

For test [4], the target named is T4, human mineralocorticoid receptor (MR) (Homo sapiens, UniProt P08235).
T4 construct: expressed in transfected cells; host or cells: CV-1 cells, transient transfection
T4 sequence (P08235 1-984): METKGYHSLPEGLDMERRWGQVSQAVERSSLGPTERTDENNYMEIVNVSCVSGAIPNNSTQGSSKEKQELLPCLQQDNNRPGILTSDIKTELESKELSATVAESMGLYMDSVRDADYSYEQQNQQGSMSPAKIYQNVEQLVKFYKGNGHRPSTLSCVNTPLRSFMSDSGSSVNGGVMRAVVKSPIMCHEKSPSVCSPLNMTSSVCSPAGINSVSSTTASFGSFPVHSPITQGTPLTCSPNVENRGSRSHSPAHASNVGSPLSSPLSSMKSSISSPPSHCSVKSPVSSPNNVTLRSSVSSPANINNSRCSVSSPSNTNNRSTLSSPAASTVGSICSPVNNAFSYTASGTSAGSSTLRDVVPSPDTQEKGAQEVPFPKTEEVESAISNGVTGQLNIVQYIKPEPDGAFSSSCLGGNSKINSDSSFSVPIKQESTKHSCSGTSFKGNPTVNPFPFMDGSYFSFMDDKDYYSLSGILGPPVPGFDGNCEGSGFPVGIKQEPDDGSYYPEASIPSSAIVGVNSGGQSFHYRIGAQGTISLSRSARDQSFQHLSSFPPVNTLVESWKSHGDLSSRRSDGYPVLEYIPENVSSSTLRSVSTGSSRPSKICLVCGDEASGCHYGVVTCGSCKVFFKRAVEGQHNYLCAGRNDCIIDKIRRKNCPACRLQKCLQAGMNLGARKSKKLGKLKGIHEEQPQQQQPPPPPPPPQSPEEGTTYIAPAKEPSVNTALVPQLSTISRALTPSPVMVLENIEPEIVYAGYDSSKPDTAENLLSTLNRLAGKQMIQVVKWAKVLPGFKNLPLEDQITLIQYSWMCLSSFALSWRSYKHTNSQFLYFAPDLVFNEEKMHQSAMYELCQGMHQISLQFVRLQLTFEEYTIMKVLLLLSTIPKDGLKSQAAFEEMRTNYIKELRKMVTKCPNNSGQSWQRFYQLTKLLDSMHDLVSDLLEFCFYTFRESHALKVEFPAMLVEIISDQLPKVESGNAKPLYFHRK
In words: Co-transfection assay, MR antagonist activity, CV-1 cells (pRShMR). It is filed as cell-based. As to conditions: Table 4; antagonist mode; % maximal inhibition.

[5] abbreviates: read-out: PR Antagonist CV-1 Cells Potency.

As for `CCCCC1Oc2ccc(F)cc2-c2ccc3c(c21)C(C)=CC(C)(C)N3` (racemic) [Compound 210, (R/S)-5-Butyl-9-fluoro-1,2-dihydro-2,2,4-trimethyl-5H-chromeno[3,4-f]quinoline], the figures for the “Mean Uterine Wet Weight” value in test [1] (0.3 mg/rat oral once a day for three days + E1 10 μg), in test [1] (1.0 mg/rat oral once a day for three days + E1 10 μg) and in test [1] (3.0 mg/rat oral once a day for three days + E1 10 μg) were 110 mg, 100 mg and 100 mg, respectively. Further, the “effect on uterine wet weight when co-administered with estrone” value in test [1] (MPA and Compound 210 at 0.3, 1.0 and 3.0 mg/rat, Compound 163 at 3 mg/rat) is reported as “decreased by approximately half”.

For `CC1(C)C=Cc2c(ccc3c2c(=O)oc2ccc(Cl)cc23)N1` [Compound 313, 9-Chloro-1,2-dihydro-2,2-dimethyl-5-coumarino[3,4-f]quinoline], the EC50 on human PR-B is 300 nM. On human PR-B (setting [5]), the IC50 was 140 nM. In addition, the Ki in test [2] (read-out: PR Binding Ki) was 87 nM.

On to `CC1=CC(C)(C)Nc2ccc3c(c21)COc1c(Cl)cccc1-3` [Compound 331, (R/S)-7-Chloro-1,2-dihydro-2,2,4-trimethyl-5H-chromeno[3,4-f]quinoline], for which, on human PR-B, the “PR Agonist CV-1 Cells Efficacy (%)” value was “na (na = not active (i.e. efficacy or <20 and potency of >10,000))”; the “PR Antagonist CV-1 Cells Efficacy (%)” value was determined as 88%; the EC50 is above 10000 nM. The IC50 on human PR-B (setting [5]) was determined as 210 nM. For the same compound, in test [2] (competition with [3H] progesterone, 4° C., 16 hours, read-out: PR Binding Ki), the Ki turned out to be 273 nM.

As to `CC1(C)C=Cc2c(ccc3c2/C(=C/c2ccccc2)Oc2ccc(Cl)cc2-3)N1` [Compound 368, (Z)-5-Benzylidene-9-chloro-1,2-dihydro-2,2-dimethyl-5H-chromeno[3,4-f]quinoline], on human PR-B, the “PR Agonist CV-1 Cells Efficacy (%)” value was determined as 183%; the “PR Antagonist CV-1 Cells Efficacy (%)” value is “na (na = not active (i.e. efficacy or <20 and potency of >10,000))”; the EC50 came out at 43 nM. In addition, at human PR-B (setting [5]), the IC50 was above 10000 nM. Further, the Ki in test [2] (read-out: PR Binding Ki) was 4 nM.

Consider `CC1=CC(C)(C)Nc2cc(C)c3c(c21)/C(=C/c1ccccc1)Oc1ccc(F)cc1-3` [Compound 377, (Z)-5-Benzylidene-9-Fluoro-1,2-dihydro-2,2,4,11-tetramethyl-5H-chromeno[3,4-f]quinoline], for which, on human PR-B, the “PR Agonist CV-1 Cells Efficacy (%)” value is reported as 101%; the “PR Antagonist CV-1 Cells Efficacy (%)” value was “na (na = not active (i.e. efficacy or <20 and potency of >10,000))”; the EC50 was found to be 550 nM. Besides, the IC50 on human PR-B (setting [5]) was above 10000 nM. In test [2] (read-out: PR Binding Ki), the Ki was found to be 20 nM.

With `CC1=CC(C)(C)Nc2ccc(-c3csc(C#N)c3)cc21` [Compound 452, 6-(5-Cyano-3-thienyl)-1,2-dihydro-2,2,4-trimethylquinoline], on human PR-B, the IC50 is 24 nM and the EC50 turned out to be 2400 nM. The compound further registered a Ki in test [2] of 17 nM.

As for `CC#C[C@]1(O)CC[C@H]2[C@@H]3CCC4=CC(=O)CCC4=C3[C@@H](c3ccc(N(C)C)cc3)C[C@@]21C` [RU486, (11 beta, 17 beta)-11-[4-(dimethylamino)phenyl]-17-hydroxy-17-(1-propynyl)estra-4,9-dien-3-one, reference compound], in test [3], the “GR Antagonist CV-1 Cells Efficacy (%)” value turned out to be 100%. Further, in test [4], the “MR Antagonist CV-1 Cells Efficacy (%)” value is reported as 77%.

In the case of `CC(=O)S[C@@H]1CC2=CC(=O)CC[C@]2(C)[C@H]2CC[C@@]3(C)[C@@H](CC[C@@]34CCC(=O)O4)[C@H]12` [Spir, reference compound], in test [3], the IC50 amounted to 2000 nM and the “GR Antagonist CV-1 Cells Efficacy (%)” value was determined as 80%. For the same compound, in test [4], the “MR Antagonist CV-1 Cells Efficacy (%)” value was 96%.

As usually defined, the Ki is a measure of affinity in units of concentration, obtained from inhibition or displacement.
